Reference: patent US20030119895A1, “Methods using a combination of a 3-heteroaryl-2-indolinone and a cyclooxygenase-2 inhibitor for the treatment of neoplasia” (Pharmacia Corporation, priority 1998, published 2003)
Where “and” joins values, the source holds several entries; their conditions need not be identical. Equal values may be shown once.

Experiments:
[1] = tested on: EpH4-VEGF; assay: Xenograft Assay 2: FLK-1/Xenograft Model, subcutaneous xenograft (In Vivo Data, EpH4-VEGF); parameters: species or system mice
Procedure: Assay 2: FLK-1/Xenograft Model
The ability of the compounds of the present invention to inhibit ovarian, melanoma, prostate, lung and mammary tumor cell lines established as SC xenografts was examined. These studies were conducted using doses ranging from 1 to 75 mg/kg/day.
Materials And Methods. The tumor cells were implanted subcutaneously into the indicated strains of mice. Treatment was initiated on day 1 post implantation unless otherwise indicated (e.g. treatment of the SCID mouse related to the A375 melanoma cell line began on Day 9). Eight (8) to sixteen (16) mice comprised each test group.
Animals. Female athymic mice (BALB/c, nu/nu), BALB/c mice, Wistar rats and Fisher 344 rats were obtained from Simonsen Laboratories (Gilroy, Calif.). Female A/I mice were obtained from Jackson Laboratory (Bar Harbor, Me.). DA rats were obtained from B&K Universal, Inc. (Fremont, Calif.). Athymic R/Nu rats, DBA/2N mice, and BALB/c mice were obtained from Harlan Sprague Dawley (Indianapolis, Ind.). Female C57BU6 mice were obtained from Taconic (Germantown, N.Y.). All animals were maintained under clean-room conditions in Micro-isolator cages with Alpha-dri bedding. They received sterile rodent chow and water ad libitum.
All procedures were conducted in accordance with the NIH Guide for the Care and Use Of Laboratory Animals.
Subcutaneous Xenograft Model. Cell lines were grown in appropriate medium as described. Cells were harvested at or near confluency with 0.05% Trypsin-EDTA and pelleted at 450×g for 10 min. Pellets were resuspended in sterile PBS or media (without FBS) to a suitable concentration indicated in the Figure legends and the cells were implanted into the hindflank of mice. Tumor growth-was measured over 3 to 6 weeks using venier calipers and tumor volumes were calculated as a product of length x width x height unless otherwise indicated. P values were calculated using the Students' t-test.
Different concentrations of a compound in 50-100 μl excipient (dimethylsulfoxide, PBTE, PBTE6C:D5W, or PBTE:D5W) were delivered by IP injection.
Results for various compounds obtained from the above-described in vivo assays are set forth at Table 5, below: […]

[2] = tested on: HUV-EC-C cells (human umbilical vein endothelial cells); assay: HUV-EC-C Assay, a-FGF (ECGF)-stimulated [3H] thymidine incorporation; assay type: cell-based; conditions: Mitogenesis in Endothelial Cells
Procedure: The following protocol may also be used to measure the composition's activity:
1. […] After cells have detached from the flask, add an equal volume of assay medium and transfer to a 50 ml sterile centrifuge tube (Fisher Scientific; catalogue no. 05-539-6).
2. Wash the cells with about 35 ml assay medium in the 50 ml sterile centrifuge, tube by adding the assay medium, centrifuge for 10 minutes at approximately 200× g, aspirate the supernatant, and resuspend with 35 ml D-PBS. Repeat the wash two more times with D-PBS, resuspend the cells in about 1 ml assay medium/15 cm^2 of tissue culture flask. Assay medium consists of F12K medium (Gibco BRL; catalogue no. 21127-014)+0.5% heat-inactivated fetal bovine serum. Count the cells with a Coulter Counter.RTM.v Coulter Electronics, Inc.) and add assay medium to the cells to obtain a concentration of 0.8-1.0×10^5 cells/ml.
3. Add cells to 96-well flat-bottom plates at 100 μl/well or 0.8-1.0×10^4 cells/well; incubate about 24 h at 37° C., 5% CO2.
1. Make up two-fold drug titrations in separate 96-well plates, generally 50 μM on down to 0 μM. Use the same assay medium as mentioned in day 0, step 2 above. Titrations are made by adding […] of drug at 200 μM (4× the final well concentration) to the top well of a particular plate column. Since the stock drug concentration is usually 20 mM in DMSO, the 200 μM drug concentration contains 2% DMSO. Therefore, diluent made up to 2% DMSO in assay medium (F12K+0.5% fetal bovine serum) is used as diluent for the drug titrations in order to dilute the drug but keep the DMSO concentration constant. Add this diluent to the remaining wells in the column at 60 μl/well. Take 60 μl from the 120 μl of 200 μM drug dilution in the top well of the column and mix with the 60 μl in the second well of the column. Take 60 μl from this well and mix with the 60 μl in the third well of the column, and so on until two-fold titrations are completed. When the next-to-the-last well is mixed, take 60 μl of the 120 μl in this well and discard it. Leave the last well with 60 μl of DMSO/media diluent as a non-drug-containing control. Make 9 columns of titrated drug, enough for triplicate wells each for 1) VEGF (obtained from Pepro Tech Inc., catalogue no. 100-200, 2) endothelial cell growth factor (ECGF) (also known as acidic fibroblast growth factor, or aFGF) (obtained from Boehringer Mannheim Biochemica, catalogue no. 1439 600), and assay media control. ECGF comes as a preparation with sodium heparin.
2. Transfer 50 μl/well of the drug dilutions to the 96-well assay plates containing the 0.8-1.0×10^4 cells/100 μl/well of the HUV-EC-C cells from day 0 and […] incubate ~2 h at 37° C., 5% CO2.
3. In triplicate, add 50 μl/well of 80 ng/ml VEGF, 20 ng/ml ECGF, or media control to each drug condition. As with the drugs, the growth factor concentrations are 4× the desired final concentration. Use the assay media from day 0 step 2 to make the concentrations of growth factors. Incubate approximately 24 hours at 37° C., 5% CO2. Each well will have 50 μl drug dilution, 50 μl growth factor or media, and 100 ul cells,=200 ul/well total. Thus the 4× concentrations of drugs and growth factors become 1× once everything has been added to the wells.
1. Add ^3H-thymidine (Amersham; catalogue no. TRK-686) at 1 μCi/well (10 μl/well of 100 μCi/ml solution made up in RPMI media+10% heat-inactivated fetal bovine serum) and incubate about 24 h at 37° C., 5% CO2.
Note: ^3H-thymidine is made up in RPMI media because all of the other applications for which we use the ^3H-thymidine involve experiments done in RPMI. The media difference at this step is probably not significant. RPMI was obtained from Gibco BRL, catalogue no. 11875-051.
1. Freeze plates overnight at −20° C.
1. Thaw plates and harvest with a 96-well plate harvester (Tomtec Harvester 96.RTM.) onto filter mats (Wallac; catalogue no. 1205-401); read counts on a Wallac Betaplate™ liquid scintillation counter.

[3] = tested on: HUV-EC-C cells (human umbilical vein endothelial cells); assay: HUV-EC-C Assay, VEGF-stimulated [3H] thymidine incorporation; assay type: cell-based; conditions: Homo sapiens, HUVEC, Mitogenesis in Endothelial Cells
[4] = target: T1, HER2 kinase (Homo sapiens, UniProt P04626); assay: HER-2 ELISA Assay 1: EGF Receptor-HER2 Chimeric Receptor Assay In Whole Cells; assay type: cell-based; conditions: ELISA Assay Results
T1 construct: fused on or other part: The EGFR extracellular domain serves for EGF stimulation and for capture by mAb 05-101; The HER2 part carries the kinase domain; P00533 (Epidermal growth factor receptor)
T1 sequence (P04626 720-987 limits assumed): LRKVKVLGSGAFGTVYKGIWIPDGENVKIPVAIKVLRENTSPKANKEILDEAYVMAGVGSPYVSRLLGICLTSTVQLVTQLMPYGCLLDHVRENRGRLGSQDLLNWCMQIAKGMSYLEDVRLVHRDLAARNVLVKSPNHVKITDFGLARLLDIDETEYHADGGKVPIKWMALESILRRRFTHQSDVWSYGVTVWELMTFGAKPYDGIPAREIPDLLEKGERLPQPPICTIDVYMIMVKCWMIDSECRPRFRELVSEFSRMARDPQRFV

| Compound | IC50 [3] | IC50 [4] | EpH4-VEGF % inhibition @ mg/kg ([1]; @ 50 mg/kg) | IC50 ([2]; Homo sapiens, HUVEC) | also measured |
| --- | --- | --- | --- | --- | --- |
| O=C1Nc2ccccc2C1=Cc1ccc(Br)cc1 [SU4942, 3-(4-Bromobenzylidenyl)-2-indolinone] | – | – | 46% @ 50 | – | EpH4-VEGF % inhibition @ mg/kg ([1]; @ 25 mg/kg): 47% @ 25; IC50 [2]: 4.6 µM |
| O=C1Nc2ccccc2C1=Cc1ccc(O)cc1Cl [SU4932, 3-(2-chloro-4-hydroxybenzylidenyl)-2-indolinone] | 2.5 µM | – | – | 45.2 µM | EpH4-VEGF % inhibition @ mg/kg ([1]; @ 75 mg/kg): 42% @ 75; EpH4-VEGF % inhibition @ mg/kg ([1]; @ 50/50 mg/kg): 42% @ 50/50 |
| CCOc1ccccc1C=C1C(=O)Nc2ccccc21 [SU5204, 3-(2-Ethoxybenzylidenyl]-2-indolinone] | 2.3 µM | 51.5 µM | – | 0.7 µM | – |
| Cc1csc(C=C2C(=O)Nc3ccccc32)c1 [SU5401, 3-[(4-Methylthien-2-yl)methylene]-2-indolinone] | 2.2 µM | 89.8 µM | – | – | – |
| Cc1ccsc1C=C1C(=O)Nc2ccccc21 [SU5427, 3-[(3-Methylthien-2-yl)methylene]-2-indolinone] | 5.7 µM | 70.6 µM | 47% @ 50 and 65% @ 50 | – | – |
| COc1ccc(C=C2C(=O)Nc3ccccc32)c(Cl)c1 [SU5480, 3-[2-Chloro-4-methoxybenzylidenyl]-2-indolinone] | 1.2 µM | 30.4 µM | – | 3.8 µM | – |

Continued, in another order:

| IC50 [3] | IC50 [4] | Compound | EpH4-VEGF % inhibition @ mg/kg ([1]; @ 50 mg/kg) | IC50 ([2]; Homo sapiens, HUVEC) | also measured |
| --- | --- | --- | --- | --- | --- |
| – | 92.6 µM | O=C1Nc2ccccc2C1=Cc1ccc(N2CCCCC2)cc1 [SU5450, 3-[4-(Piperidin-1-yl)benzylidenyl]-2-indolinone] | – | – | – |
| 2.5 µM | – | Cc1ccc(C=C2C(=O)Nc3ccccc32)s1 [SU5424, 3-[(2-Methylthien-5-yl)methylene]-2-indolinone] | 45% @ 50 and 65% @ 50 | – | – |
